Eleven compounds from ChEMBL document CHEMBL1201862, “PubChem BioAssay data set” (2004) can be followed below.

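All cell lines were grown in 96-well plates and treated with compound for 48 hours. Here, GI50 denotes the concentration required for 50% inhibition of growth.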 Active and inactive are the calls of the source. Cut-off read from the data, not from the text of the source: active = GI50 up to about 1.1 µM and inactive = higher. Some results are limits rather than exact numbers.

Test systems include KM-20L2; DLD-1; DMS-273; RXF 631; M19-MEL; XF498; DMS-114; HOP-18; BT-549.
Holding throughout (experiment): NCI anticancer screen, dose series, 48 h

For the compound `Nc1ccc(C(=O)N/C(=C\C=C\c2ccco2)c2nc3c(O)nc(S)nc3[nH]2)cc1`, the GI50 in the experiment with KM-20L2 is 87.1 µM (inactive); in the experiment on DLD-1, > 100 µM (inactive); in the experiment with DMS-273, > 100 µM (inactive); in the experiment with RXF 631, > 100 µM (inactive); with M19-MEL, > 100 µM (inactive); in the experiment with XF498 it was > 100 µM (inactive).
Take `CC(=O)NC(CCCN(Cc1ccccc1)C(=O)N(C)N=O)C(=O)NCc1ccccc1` (stereo unspecified): the GI50 in the experiment on KM-20L2, in the experiment with DLD-1, in the experiment with DMS-273, with RXF 631, in the experiment with M19-MEL and in the experiment on XF498 was > 100 µM (inactive) each time. Besides, in the experiment with DMS-114, the GI50 was > 100 µM (inactive).
As to `CC#C[C@@]1(O)CCCCC1O` (stereo partly specified), the GI50 in the experiment with KM-20L2, with HOP-18, in the experiment with DMS-273, with RXF 631, in the experiment on M19-MEL and in the experiment with XF498 was > 100 µM (inactive) each time. For the same compound, the GI50 with DMS-114 is > 100 µM (inactive).
Regarding `O=C(Cc1nc2ccccc2o1)C(=O)Nc1ccccc1C(F)(F)F`, the GI50 in the experiment on KM-20L2, in the experiment on DLD-1, in the experiment on DMS-273, with RXF 631, in the experiment on M19-MEL and with XF498 was > 100 µM (inactive) each time. In addition, the GI50 in the experiment with DMS-114 is > 100 µM (inactive).
As to `O=C(/C=C/c1ccccc1)CCN1CCOCC1`, the GI50 in the experiment with KM-20L2 is 15.9 µM (inactive); in the experiment with HOP-18, 17.7 µM (inactive); in the experiment with DLD-1 it was 9.29 µM (inactive); in the experiment on BT-549 it was 12.6 µM (inactive); in the experiment with DMS-273, 16.9 µM (inactive); in the experiment on M19-MEL, 14.6 µM (inactive). Further, the GI50 in the experiment with XF498 was 14.7 µM (inactive); with DMS-114 it was 9.25 µM (inactive).
With `COc1cc2c(oc(=O)c3cc4cc([Si](C)(C)C)oc4c(OC)c32)c2cccc(O)c12`, the GI50 in the experiment with KM-20L2, in the experiment on HOP-18, in the experiment on DLD-1, with DMS-273, in the experiment on M19-MEL and with XF498 was > 100 µM (inactive) throughout. Also, the GI50 with DMS-114 was > 100 µM (inactive).
As to `[N-]=[N+]=CC(=O)CCC(N)C(=O)O` (stereo unspecified), the GI50 with KM-20L2 is 0.226 µM (active); in the experiment with HOP-18, 43.3 µM (inactive); in the experiment with DLD-1, 1.02 µM (active); in the experiment on BT-549, 34.6 µM (inactive); with DMS-273, 1.09 µM (active); in the experiment with M19-MEL, 1.59 µM (inactive). Also, the GI50 with XF498 was 22 µM (inactive); in the experiment with DMS-114 it was 1.87 µM (inactive).
Consider `CCc1cccc(C)c1NC(=O)CCc1nnc2s/c(=C\c3cccc4ccccc34)c(=O)n12`, for which the GI50 was > 100 µM (inactive) in the experiment on KM-20L2; 60 µM (inactive) in the experiment on DLD-1; 61.4 µM (inactive) in the experiment on DMS-273; > 100 µM (inactive) in the experiment on RXF 631; > 100 µM (inactive) in the experiment on M19-MEL; > 100 µM (inactive) in the experiment on XF498. The GI50 with DMS-114 is 36 µM (inactive).
With `Cc1ccc(SSc2ccc(C)cc2C(=O)O)c(C(=O)O)c1`, the GI50 in the experiment on KM-20L2, in the experiment with DLD-1, in the experiment with DMS-273, in the experiment with RXF 631 and in the experiment with M19-MEL was > 100 µM (inactive) throughout.
Regarding `CCN(CC)CC(C)C(=O)/C=C/c1ccc(C)cc1` (stereo unspecified), the GI50 is 10 µM (inactive) in the experiment with KM-20L2; 10.5 µM (inactive) in the experiment on HOP-18; 1.67 µM (inactive) in the experiment with DLD-1; 2.23 µM (inactive) with DMS-273; 1.67 µM (inactive) in the experiment on M19-MEL; 1.54 µM (inactive) in the experiment on XF498. Besides, the GI50 with DMS-114 was 1.77 µM (inactive).
For `Cc1cccc(C(C)(C)C)c1NC(=O)CC1Sc2ccccc2NC1=O` (stereo unspecified), the GI50 in the experiment with KM-20L2 was > 100 µM (inactive); in the experiment on HOP-18 it was 57.9 µM (inactive); with DLD-1, 57.4 µM (inactive); with DMS-273 it was 32.9 µM (inactive); in the experiment with RXF 631 it was 36.7 µM (inactive); with M19-MEL, 66.8 µM (inactive). Besides, in the experiment with DMS-114, the GI50 is 24.8 µM (inactive).
